From PMC7248705, “A Pharmacokinetic and Pharmacodynamic Evaluation of the Anti-Hepatocellular Carcinoma Compound 4-N-Carbobenzoxy-gemcitabine (Cbz-dFdC)” (Molecules, 2020)
Entries after “also recorded” stand apart in the source; their conditions may differ.

What was measured:
[1] = Plasma pharmacokinetics in vivo; conditions: SD, rat, po; plasma analyte after i.g. Cbz-dFdC 22 mg/kg, rats
Method: SD rats (n = 6) were intragastrically administered Cbz-dFdC (22 mg/kg) and intravenously injected with dFdC (15 mg/kg), and 150 μL blood samples were collected from the retro-orbital route in the right eye at 0, 5, 10, 20, and 30 min and at 1, 2, 4, 6, 12, 24, and 48 h, using heparinized tubes. Without delay, the blood was directly centrifuged at 8000× g at 4 °C for 5 min. Then, the supernatant plasma was collected and immediately extracted using a previously established method or was frozen at −80 °C until further analysis.

[2] = Tissue distribution (liver, kidney, intestine); format: in vivo, SD rats; conditions: rats
Method: In order to investigate the drug distribution in different tissues and the relationship between CES1 activity and tissue concentration, we conducted tissue distribution experiments. The SD rats were divided into six groups (n = 6 for each group). After a single intragastric administration of Cbz-dFdC (22 mg/kg) and a single injected administration of dFdC (15 mg/kg), the SD rats were sacrificed at 0.5 h, 1.5 h, and 4 h, and the liver, kidney, and intestine were collected. The liver was perfused with ice-cold normal saline and then removed, followed by ice-cold normal saline cleaning. The kidney and intestine were directly removed and then washed with ice-cold normal saline. All of the above operations were carried out on ice, and the removed tissue was stored in an ice bath. The liver, kidney, and intestine were cut and crushed, homogenized with an appropriate amount of phosphate buffer by a homogenizer, and then diluted 5 times with ice-cold PBS buffer (in an ice bath). The tissue homogenates were determined with a BCA kit for protein concentration, a CES1 kit for CES1 activity, and UFLC–MS/MS for drug tissue concentration after pretreatment; the pretreatment method was reported previously.

[3] = Enzymatic kinetics in vitro, rat blood; format: in vitro ADME; conditions: 37 °C, 30 min, 5–200 μM Cbz-dFdC
Method: (§1) The SD rats without any treatment were sacrificed after adapting to the environment. Blank blood, the liver, the kidney, and the intestine were collected and treated as described in Section 4.4. Part of the homogenate was removed for centrifugation for 20 min at 9000× g at 4 °C, and the supernatant was obtained as tissue S9. The tissue homogenate and S9 were diluted to […] after the protein concentration was determined by the BCA kit (Abcam, Cambridge, MA, USA). Each matrix consisted of 45 uL of the matrix mixed with 5 uL of the drug dissolved in normal saline solution for about 3 min, followed by incubation at 37 °C in a water bath. Then, acetonitrile containing the internal standard was added to terminate the reaction. Human tissue S9 and human CES1 recombinase purchased from the Ruid Liver Disease Research Co., Ltd. (Shanghai, China) were incubated under the same conditions. An enzyme kinetic study was obtained from the matrix following incubation at 37 °C for 30 min with 5, 10, 20, 50, 100, or 200 μM of Cbz-dFdC. We estimated the parameters and simulated curves according to the Eadie–Hofstee method.

[4] = Enzymatic kinetics in vitro, rat plasma; format: in vitro ADME; conditions: 37 °C, 30 min, 5–200 μM Cbz-dFdC
Method: as §1

[5] = Enzymatic kinetics in vitro, rat liver homogenate; format: in vitro ADME; conditions: 37 °C, 30 min, 5–200 μM Cbz-dFdC
Method: as §1

[6] = Enzymatic kinetics in vitro, rat liver S9; format: in vitro ADME; conditions: 37 °C, 5–200 μM Cbz-dFdC
Method: as §1

[7] = Enzymatic kinetics in vitro, rat kidney homogenate; format: in vitro ADME; conditions: 37 °C, 30 min, 5–200 μM Cbz-dFdC
Method: as §1

[8] = Enzymatic kinetics in vitro, rat kidney S9; format: in vitro ADME; conditions: 37 °C, 5–200 μM Cbz-dFdC
Method: as §1

[9] = Enzymatic kinetics in vitro, human liver S9; format: in vitro ADME
Method: as §1

[10] = Incubation in human plasma and S9 of the kidney and intestine; format: in vitro ADME
Method: as §1

[11] = tested on: human HepG2 cell line; assay: CCK-8 tumor cell growth inhibition assay; format: cell-based; conditions: HepG2, CCK-8, concentration-dependent
Method: The cells were cultured on a 96-well plate for 4 h for each well. Then, dimethyl sulfoxide solution containing 0.1–100 mM of Cbz-dFdC and dFdC was diluted 1000 times with the medium before administration. A total of 200 uL of medium containing Cbz-dFdC and dFdC was added per well (n = 6). The medium with drugs was discarded, and 10% CCK-8 solution was added. Then, the absorbance value was read at a wavelength of 450 nm after incubation at 37 °C, for 30 min. The drug concentration of Cbz-dFdC and dFdC in cell were determined by a previously established method.

[12] = tested on: HepG2 tumor; assay: Antitumor efficacy in vivo, HepG2 tumor-bearing mice; conditions: 15 days, Cbz-dFdC i.g. 22 mg/kg/day vs dFdC i.p. 15 mg/kg/day (equimolar)
Method: A cell suspension (2 × 10^7 cells/mL) of HepG2 with 0.2 mL was subcutaneously injected into the right armpits of the mice. After the hepatocellular carcinomas were inoculated, mice bearing an overt tumor with a size of 100–200 mm^3 were randomized into the control and treatment groups. One group was injected (i.p.) with PBS as the control group, Cbz-dFdC groups were given with 22 mg/kg/day (i.g.), respectively, and the dFdC groups were given with 15 mg/kg/day (i.p.), respectively. The tumor sizes of all mice were monitored at 0 d, 3 d, 6 d, 9 d, 12 d, and 15 d after drug treatment. The tumor size was converted into tumor volume (V), which was calculated by the formula (L × W^2 × 0.52) and presented as the mean ± standard deviation, where L and W are the length and width of the tumor, respectively. The tumors were measured with a Vernier caliper until day 15, when the PBS brine-treated mice began to die, then all […] were sacrificed via nitrogen inhalation.

[13] = read-out: Km, appearance of dFdC
[14] = read-out: Km, disappearance of Cbz-dFdC
[15] = SD, read-out: Clint, disappearance of Cbz-dFdC
[16] = SD, read-out: Km, disappearance of Cbz-dFdC
[17] = SD, 30 min, read-out: Clint, disappearance of Cbz-dFdC
[18] = Human Liver S9, 37 °C, 30 min, 5–200 μM Cbz-dFdC

Q: Which AUC(0-inf) [1] does the source give for `O=C(Nc1ccn([C@@H]2O[C@H](CO)[C@@H](O)C2(F)F)c(=O)n1)OCc1ccccc1` [Cbz-dFdC, 4-N-carbobenzoxy-gemcitabine] here?
A: 2690 ± 457 ng·h/mL

Q: And the Cmax [1]?
A: 451 ± 107 ng/mL

Q: What about the Tmax [1] of the same molecule?
A: 2 h

Q: And the half-life [1]?
A: 9.91 ± 1.87 h

Q: And the “Cbz-dFdC level in the intestine versus other tissues” value ([2]; after i.g. Cbz-dFdC 22 mg/kg, liver, kidney, intestine, especially at 0.5 h)?
A: significantly higher than that in the other tissues; also recorded: mainly distributed in the intestine

Q: What about the tissue penetration ([2]; drug concentration in tissue lower than plasma concentration) of the same molecule?
A: weak tissue penetration

Q: What about the “Vmax, appearance of dFdC” value [3] of the same molecule?
A: 178.5 nmol/min/mg pro

Q: What about the “Vmax, disappearance of Cbz-dFdC” value [3] of the same molecule?
A: 341.1 nmol/min/mg pro

Q: What about the Km [3, 13] of the same molecule?
A: 73.2 µM

Q: And the Km [3, 14]?
A: 69.8 µM

Q: What about the microsomal CLint [3, 15] of the same molecule?
A: 4890 µL/min/mg

Q: And the “Vmax, appearance of dFdC” value [4]?
A: 230.4 nmol/min/mg pro

Q: And the “Vmax, disappearance of Cbz-dFdC” value [4]?
A: 486.2 nmol/min/mg pro

Q: And the Km [4, 13]?
A: 101 µM

Q: And the Km [4, 14]?
A: 90.3 µM

Q: And the microsomal CLint [4, 15]?
A: 5380 µL/min/mg

Q: What about the “Vmax, appearance of dFdC” value [5] of the same molecule?
A: 86.8 nmol/min/mg pro

Q: And the “Vmax, disappearance of Cbz-dFdC” value [5]?
A: 411.6 nmol/min/mg pro

Q: And the Km [5, 13]?
A: 96.4 µM

Q: And the Km [5, 14]?
A: 190 µM

Q: And the microsomal CLint [5, 15]?
A: 2170 µL/min/mg

Q: And the “Vmax, appearance of dFdC” value ([6]; 30 min)?
A: 49.5 nmol/min/mg pro

Q: What about the “Vmax, disappearance of Cbz-dFdC” value ([6]; 30 min) of the same molecule?
A: 169.6 nmol/min/mg pro

Q: And the Km at 30 min [6, 16]?
A: 96.3 µM

Q: What about the microsomal CLint [6, 17] of the same molecule?
A: 1760 µL/min/mg

Q: And the “Vmax, appearance of dFdC” value [7]?
A: 44.3 nmol/min/mg pro

Q: What about the “Vmax, disappearance of Cbz-dFdC” value [7] of the same molecule?
A: 162.7 nmol/min/mg pro

Q: And the Km [7, 13]?
A: 48.9 µM

Q: What about the Km [7, 14] of the same molecule?
A: 148 µM

Q: What about the microsomal CLint [7, 15] of the same molecule?
A: 1100 µL/min/mg

Q: And the “Vmax, appearance of dFdC” value ([8]; 30 min)?
A: 50.2 nmol/min/mg pro

Q: And the “Vmax, disappearance of Cbz-dFdC” value ([8]; 30 min)?
A: 206.5 nmol/min/mg pro

Q: And the Km at 30 min [8, 16]?
A: 269 µM

Q: What about the microsomal CLint [8, 17] of the same molecule?
A: 770 µL/min/mg

Q: What about the “Vmax, appearance of dFdC” value [9, 18] of the same molecule?
A: 480.6 nmol/min/mg pro

Q: And the “Vmax, disappearance of Cbz-dFdC” value [9, 18]?
A: 1491.3 nmol/min/mg pro

Q: What about the microsomal CLint ([9]; Human Liver S9, 37 °C, 30 min, 5–200 μM Cbz-dFdC, read-out: Clint, disappearance of Cbz-dFdC) of the same molecule?
A: 13800 µL/min/mg

Q: What about the Km at 30 min ([9]; Human Liver S9, 37 °C, 30 min, 5–200 μM Cbz-dFdC, read-out: Km, disappearance of Cbz-dFdC) of the same molecule?
A: 108 µM

Q: What about the “stability in human liver S9” value ([9]; human liver S9, easily hydrolyzed into dFdC) of the same molecule?
A: unstable

Q: What about the “stability towards CES2 in humans” value ([10]; concluded from tissue-specific CES expression, humans) of the same molecule?
A: relatively stable in CES2

Q: And the “degradation in human plasma and S9 of the kidney and intestine” value ([10]; human plasma, kidney S9, intestine S9)?
A: did not degrade

Q: What about the “cytotoxicity / tumor cell growth inhibition” value [11] of the same molecule?
A: certain cytotoxicity; also recorded: lower than that of an equimolar dose of dFdC

Q: And the “antitumor effect (tumor size)” value [12]?
A: slightly better than that of dFdC
